{
  "source": "patent US9649298B2",
  "about": "“Cytotoxic substance for use in combination with radiotherapy in cancer treatment” (Fumedica AG, priority 2013, dated 2017)",
  "key": {"[1]": {"tested_on": "glioblastoma tumor", "assay": "Glioblastoma tumor size after irradiation with 50x50 microbeam array (Example 2) followed by cisplatin", "type": "in vivo", "details": "Cisplatin administered within 30 min to 1 h after irradiation with 50x50 microbeam array", "source_text": "In this example, CAM were irradiated at the biomedical beamline of ESRF. The generation and preparation of the microbeams occurred basically in the same manner as described in Example 1 according to a second preferred embodiment with the substantially circular cross-section of each microbeam. The difference here however is that behind the multi-slit collimator a second collimator (such as an Archer variable multi-slit collimator) was placed into the path of the first array of microbeams formed by the first collimator. […] A GafChromic radiochromic film type […] But in Example 2 the irradiation rather punctures the tissue. Therefore, the level of exposure of the irradiated tissue is even less lethal and results in a […] chemotherapeutic window (compared to FIG. 4)."}, "[2]": {"tested_on": "U-87 MG human glioblastoma xenographs", "assay": "Tumor volume in U-87 MG human glioblastoma xenografts after microbeam radiation (fan-like array) and/or cisplatin", "type": "in vivo, Balb/c nude mice"}},
  "data": [
    {"smiles": "N.N.[Cl][Pt][Cl]", "note": "[Cisplatin, cisplatin]", "values": [
      {"measurement": "glioblastoma tumor sizes after treatment", "setting": "[1]", "value": "progressive and significant decrease"},
      {"measurement": "tumor sizes after treatment (tumor volume, FIG. 8a)", "setting": "[2]; double treatment (DT): Cisplatin administered after the MR procedure, within window of increased vascular permeability", "value": "progressive and significant decrease"},
      {"measurement": "tumor sizes after treatment (tumor volume, FIG. 8a)", "setting": "[2]; only Cisplatin, single chemotherapeutic treatment, no irradiation", "value": "gradual increase in size"}
    ]}
  ]
}
